Laboratory results reported in PMC3006453 (Journal of structural biology, 2010).
“Also recorded” adds a separate entry of the source. Where two headings read alike, the source gives them in different places.

Columns and labels:
AtMTAN1 [1] = target: T1, AtMTAN1 (Arabidopsis thaliana, UniProt Q9T0I8); details: ref Siu et al., 2008a, cited from earlier work; for hydrolysis of substrates with extended 5′-substituents by AtMTAN1: previous kinetics studies
EcMTAN = details: substrate SAH; no reference and method not given
AtMTAN1 [2] = target: T1, AtMTAN1; test: Xanthine oxidase-coupled spectrophotometric assay of substrate hydrolysis; format: biochemical
AtMTAN2 = details: ref Siu et al., 2008a; cited from earlier work
EcMTAN-Glu174Gln = EcMTAN-Glu174Gln (Escherichia coli, UniProt P0AF12, E174Q); test: Isothermal titration calorimetry, ligand binding to EcMTAN-Glu174Gln mutant; details: for N: ITC stoichiometry; for ΔH / −TΔS: pH 7.5, 25 °C
AtMTAN1-Glu202Gln = AtMTAN1-Glu202Gln (Arabidopsis thaliana, UniProt Q9T0I8, E202Q); test: Isothermal titration calorimetry, ligand binding to AtMTAN1-Glu202Gln mutant
AtMTAN1 [3] = target: T1, AtMTAN1; test: Isothermal titration calorimetry, ligand binding to wild-type AtMTAN1
[4] = ITC, 50 mM sodium-HEPES pH 7.5, 25 °C, single-binding site model
[5] = ITC stoichiometry, single-binding site model

Compound: Nc1ncnc2c1ncn2[C@@H]1O[C@H](CSCC[C@H](N)C(=O)O)[C@@H](O)[C@H]1O [SAH, S-adenosylhomocysteine]
- activity of AtMTAN1 towards the substrate (AtMTAN1 [1]): completely inactive
- Km (EcMTAN): 1.3 ± 0.2 µM
- catalytic activity (hydrolysis) of AtMTAN1 towards the substrate (AtMTAN1 [2]; kinetics and ITC studies, 10- and 30-min durations): does not hydrolyze; also recorded: did not detect catalytic activity
- activity towards the substrate (AtMTAN2): 14%
- Kd (EcMTAN-Glu174Gln): 9.3 ± 0.4 µM
- N (EcMTAN-Glu174Gln; single-binding site model): 0.94 ± 0.01
- ΔH (EcMTAN-Glu174Gln; ITC): -7.9 ± 0.1 kcal/mol
- −TΔS (EcMTAN-Glu174Gln; ITC): 1.0 kcal/mol
- Kd (AtMTAN1-Glu202Gln): > 600 µM
- Kd (AtMTAN1-Glu202Gln; [4]): No interaction is detected; also recorded: Not detected

Compound: 5′-isobutylthioadenosine
- hydrolysis of substrates with extended 5′-substituents by AtMTAN1 (AtMTAN1 [1]): can hydrolyze

Compound: 5′-butylthioadenosine
- hydrolysis of substrates with extended 5′-substituents by AtMTAN1 (AtMTAN1 [1]): can hydrolyze

Compound: Nc1ncnc2[nH]cnc12 [ADE, adenine]
- Kd (AtMTAN1 [3]): 1.7 ± 0.1 µM
- N (AtMTAN1 [3]; [5]): 0.99 ± 0.003
- ΔH (AtMTAN1 [3]; ITC, pH 7.5, 25 °C): -10.3 ± 0.5 kcal/mol
- −TΔS (AtMTAN1 [3]; ITC, pH 7.5, 25 °C): 2.4 kcal/mol

Compound: 5′-methylthioadenosine [MTA]
- Km (AtMTAN1 [2]; substrate MTA, wild-type AtMTAN1, no reference given): 1.5 ± 0.2 µM
- N (EcMTAN-Glu174Gln; single-binding site model): 0.94 ± 0.01
- Kd (EcMTAN-Glu174Gln; [4]): 4.8 ± 0.4 µM
- ΔH (EcMTAN-Glu174Gln; ITC): -9.6 ± 0.1 kcal/mol
- −TΔS (EcMTAN-Glu174Gln; ITC): 2.4 kcal/mol
- N (AtMTAN1-Glu202Gln; [5]): 0.97 ± 0.04
- Kd (AtMTAN1-Glu202Gln; [4]): 94.8 ± 4 µM
- ΔH (AtMTAN1-Glu202Gln; ITC, pH 7.5, 25 °C): 5.6 ± 0.3 kcal/mol
- −TΔS (AtMTAN1-Glu202Gln; ITC, pH 7.5, 25 °C): -11.1 kcal/mol
